ChEMBL document CHEMBL1201862, “PubChem BioAssay data set” (2004)
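How tested: cells in 96-well plates exposed to compound for 48 hours at five concentrations. GI50 = concentration required for 50% inhibition of growth.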 Calls of active or inactive are those of the source. Rule as the data show it: active = GI50 up to about 1.1 µM and inactive = higher.

Tests used:
Assay in all cases: inhibition of tumour cell growth, NCI panel, 48 h
SF-539 = test system: SF-539
NCI-H522 = test system: NCI-H522
NCI-H460 = test system: NCI-H460
HCT-116 = test system: HCT-116
UACC-257 = test system: UACC-257
MDA-N = test system: MDA-N
SF-295 = test system: SF-295
PC-3 = test system: PC-3
DU-145 = test system: DU-145
U-251 = test system: U-251
IGROV-1 = test system: IGROV-1
M14 = test system: M14
UO-31 = test system: UO-31
RPMI-8226 = test system: RPMI-8226
ACHN = test system: ACHN
MOLT-4 = test system: MOLT-4
786-0 = test system: 786-0
EKVX = test system: EKVX
TK-10 = test system: TK-10
T47D = test system: T47D
SW-620 = test system: SW-620
LOX IMVI = test system: LOX IMVI
SK-OV-3 = test system: SK-OV-3
CAKI-1 = test system: CAKI-1
CCRF-CEM = test system: CCRF-CEM
MDA-MB-231 = test system: MDA-MB-231
SK-MEL-2 = test system: SK-MEL-2
HCT-15 = test system: HCT-15
HCC 2998 = test system: HCC 2998
RXF 393 = test system: RXF 393
OVCAR-5 = test system: OVCAR-5
HL-60 = test system: HL-60
MCF7 = test system: MCF7
SR = test system: SR
HOP-92 = test system: HOP-92
Hs-578T = test system: Hs-578T
HT-29 = test system: HT-29
OVCAR-4 = test system: OVCAR-4
NCI/ADR-RES = test system: NCI/ADR-RES
HOP-62 = test system: HOP-62
A498 = test system: A498
NCI-H23 = test system: NCI-H23
SK-MEL-5 = test system: SK-MEL-5
MDA-MB-435 = test system: MDA-MB-435
K562 = test system: K562
OVCAR-3 = test system: OVCAR-3
SK-MEL-28 = test system: SK-MEL-28
SF-268 = test system: SF-268
NCI-H226 = test system: NCI-H226
OVCAR-8 = test system: OVCAR-8
KM12 = test system: KM12
Malme-3M = test system: Malme-3M
SNB-19 = test system: SNB-19
SNB-75 = test system: SNB-75
SN12C = test system: SN12C
COLO 205 = test system: COLO 205
A549 = test system: A549
UACC-62 = test system: UACC-62

## CC1=NN(c2cccc(Cl)c2)C2(SCC(=O)N2c2nc3ccccc3s2)/C1=C\c1ccccc1O (stereo not drawn)
SF-539
  GI50: 33.5 µM (inactive)
NCI-H522
  GI50: 19.8 µM (inactive)
NCI-H460
  GI50: 31.8 µM (inactive)
HCT-116
  GI50: 14.9 µM (inactive)
UACC-257
  GI50: 31.4 µM (inactive)
MDA-N
  GI50: 22.3 µM (inactive)
SF-295
  GI50: 25.8 µM (inactive)
PC-3
  GI50: 19.8 µM (inactive)
DU-145
  GI50: 18.3 µM (inactive)
U-251
  GI50: 19.2 µM (inactive)
IGROV-1
  GI50: 17.4 µM (inactive)
M14
  GI50: 21.7 µM (inactive)
UO-31
  GI50: 15.7 µM (inactive)
RPMI-8226
  GI50: 11.9 µM (inactive)
ACHN
  GI50: 15.5 µM (inactive)
MOLT-4
  GI50: 11.9 µM (inactive)
786-0
  GI50: 16.3 µM (inactive)
EKVX
  GI50: 30.5 µM (inactive)
TK-10
  GI50: 42.4 µM (inactive)
T47D
  GI50: 3.99 µM (inactive)
SW-620
  GI50: 16.7 µM (inactive)
LOX IMVI
  GI50: 30.5 µM (inactive)
SK-OV-3
  GI50: 18.4 µM (inactive)
CAKI-1
  GI50: 21.4 µM (inactive)
CCRF-CEM
  GI50: 15.1 µM (inactive)
MDA-MB-231
  GI50: 20.2 µM (inactive)
SK-MEL-2
  GI50: 17.6 µM (inactive)
HCT-15
  GI50: 14.6 µM
HCC 2998
  GI50: 21.6 µM (inactive)
RXF 393
  GI50: 17 µM (inactive)
OVCAR-5
  GI50: 25.4 µM (inactive)
HL-60
  GI50: 14.2 µM (inactive)
MCF7
  GI50: 20 µM (inactive)
SR
  GI50: 13.7 µM (inactive)
HOP-92
  GI50: 10.1 µM (inactive)
Hs-578T
  GI50: 27.8 µM (inactive)
HT-29
  GI50: 23.4 µM (inactive)
OVCAR-4
  GI50: 21.4 µM (inactive)
NCI/ADR-RES
  GI50: 19.7 µM (inactive)
HOP-62
  GI50: 20.9 µM (inactive)
A498
  GI50: 11 µM (inactive)
NCI-H23
  GI50: 16 µM (inactive)
SK-MEL-5
  GI50: 13.4 µM (inactive)
MDA-MB-435
  GI50: 21.3 µM (inactive)
K562
  GI50: 5.65 µM (inactive)
OVCAR-3
  GI50: 15.8 µM (inactive)
SK-MEL-28
  GI50: 24.8 µM (inactive)
SF-268
  GI50: 22.6 µM (inactive)
NCI-H226
  GI50: 34.3 µM (inactive)
OVCAR-8
  GI50: 18.1 µM (inactive)
KM12
  GI50: 19.7 µM (inactive)

## O=C(O)c1cc2ccccc2c(/N=N\c2cc(C(F)(F)F)ccc2Cl)c1O
SF-539
  GI50: 99.3 µM (inactive)
NCI-H522
  GI50: > 100 µM (inactive)
NCI-H460
  GI50: 38.5 µM (inactive)
HCT-116
  GI50: 53.8 µM (inactive)
UACC-257
  GI50: 67.6 µM (inactive)
MDA-N
  GI50: > 100 µM (inactive)
SF-295
  GI50: 47.6 µM (inactive)
PC-3
  GI50: 48.6 µM (inactive)
DU-145
  GI50: 74.1 µM (inactive)
U-251
  GI50: 27.5 µM (inactive)
IGROV-1
  GI50: 95.9 µM (inactive)
M14
  GI50: > 100 µM (inactive)
UO-31
  GI50: 33.4 µM (inactive)
RPMI-8226
  GI50: 17.8 µM (inactive)
ACHN
  GI50: 46.5 µM (inactive)
MOLT-4
  GI50: 27.4 µM (inactive)
786-0
  GI50: 56.1 µM (inactive)
Malme-3M
  GI50: 37.4 µM (inactive)
EKVX
  GI50: 70 µM (inactive)
TK-10
  GI50: > 100 µM (inactive)
T47D
  GI50: 48.8 µM (inactive)
SW-620
  GI50: > 100 µM (inactive)
SK-OV-3
  GI50: > 100 µM (inactive)
CAKI-1
  GI50: 94.8 µM (inactive)
CCRF-CEM
  GI50: 33.6 µM (inactive)
SNB-19
  GI50: 1.17 µM (inactive)
MDA-MB-231
  GI50: 18.3 µM (inactive)
SNB-75
  GI50: 0.0169 µM (active)
SK-MEL-2
  GI50: 25.4 µM (inactive)
HCT-15
  GI50: 83.8 µM
HCC 2998
  GI50: > 100 µM (inactive)
RXF 393
  GI50: 35.2 µM (inactive)
SN12C
  GI50: 44.9 µM (inactive)
OVCAR-5
  GI50: > 100 µM (inactive)
HL-60
  GI50: 21.8 µM (inactive)
MCF7
  GI50: > 100 µM (inactive)
COLO 205
  GI50: 39.7 µM (inactive)
SR
  GI50: 24.8 µM (inactive)
HOP-92
  GI50: 53.8 µM (inactive)
Hs-578T
  GI50: 37.6 µM (inactive)
HT-29
  GI50: 77.6 µM (inactive)
OVCAR-4
  GI50: 86.9 µM (inactive)
NCI/ADR-RES
  GI50: 76.2 µM (inactive)
HOP-62
  GI50: 38.1 µM (inactive)
NCI-H23
  GI50: 56.5 µM (inactive)
SK-MEL-5
  GI50: 25.5 µM (inactive)
A549
  GI50: 27.9 µM (inactive)
MDA-MB-435
  GI50: > 100 µM (inactive)
K562
  GI50: 27 µM (inactive)
OVCAR-3
  GI50: 22.5 µM (inactive)
SK-MEL-28
  GI50: 83 µM (inactive)
SF-268
  GI50: > 100 µM (inactive)
NCI-H226
  GI50: > 100 µM (inactive)
OVCAR-8
  GI50: 60.8 µM (inactive)
KM12
  GI50: 23.8 µM (inactive)

## Cc1nc2[nH]ncn2c(=O)c1CCO
SF-539
  GI50: > 10 µM (inactive)
UACC-62
  GI50: > 10 µM (inactive)
NCI-H522
  GI50: > 10 µM (inactive)
NCI-H460
  GI50: > 10 µM (inactive)
HCT-116
  GI50: > 10 µM (inactive)
MDA-N
  GI50: > 10 µM (inactive)
PC-3
  GI50: > 10 µM (inactive)
DU-145
  GI50: > 10 µM (inactive)
U-251
  GI50: > 10 µM (inactive)
IGROV-1
  GI50: > 10 µM (inactive)
M14
  GI50: > 10 µM (inactive)
UO-31
  GI50: > 10 µM (inactive)
RPMI-8226
  GI50: > 10 µM (inactive)
ACHN
  GI50: > 10 µM (inactive)
MOLT-4
  GI50: > 10 µM (inactive)
Malme-3M
  GI50: > 10 µM (inactive)
EKVX
  GI50: > 10 µM (inactive)
TK-10
  GI50: > 10 µM (inactive)
T47D
  GI50: > 10 µM (inactive)
SW-620
  GI50: > 10 µM (inactive)
LOX IMVI
  GI50: > 10 µM (inactive)
SK-OV-3
  GI50: > 10 µM (inactive)
CAKI-1
  GI50: > 10 µM (inactive)
CCRF-CEM
  GI50: > 10 µM (inactive)
SNB-19
  GI50: > 10 µM (inactive)
MDA-MB-231
  GI50: > 10 µM (inactive)
SNB-75
  GI50: > 10 µM (inactive)
SK-MEL-2
  GI50: > 10 µM (inactive)
HCT-15
  GI50: > 10 µM
HCC 2998
  GI50: > 10 µM (inactive)
RXF 393
  GI50: > 10 µM (inactive)
SN12C
  GI50: > 10 µM (inactive)
OVCAR-5
  GI50: > 10 µM (inactive)
HL-60
  GI50: > 10 µM (inactive)
MCF7
  GI50: > 10 µM (inactive)
COLO 205
  GI50: > 10 µM (inactive)
SR
  GI50: > 10 µM (inactive)
Hs-578T
  GI50: > 10 µM (inactive)
HT-29
  GI50: > 10 µM (inactive)
OVCAR-4
  GI50: > 10 µM (inactive)
NCI/ADR-RES
  GI50: > 10 µM (inactive)
HOP-62
  GI50: > 10 µM (inactive)
A498
  GI50: > 10 µM (inactive)
NCI-H23
  GI50: > 10 µM (inactive)
SK-MEL-5
  GI50: > 10 µM (inactive)
A549
  GI50: > 10 µM (inactive)
MDA-MB-435
  GI50: > 10 µM (inactive)
K562
  GI50: > 10 µM (inactive)
SK-MEL-28
  GI50: 2.56 µM (inactive)
SF-268
  GI50: > 10 µM (inactive)
NCI-H226
  GI50: > 10 µM (inactive)
OVCAR-8
  GI50: > 10 µM (inactive)
